Data: US11389449B2, “Treatment of metabolic syndrome with an sGC stimulator” (Cyclerion Therapeutics, Inc., priority 2017, dated 2022)

Columns and labels:
[1] = system: ZSF1 obese rats; assay: Oral glucose tolerance test (OGTT) and fasting glucose in ZSF1 rats at week 10; assay type: in vivo, rat; details: enalapril 3 mpk
Procedure: Male ZSF1 rats (body weight 400-430 grams (lean control) and 500-605 grams (obese) at baseline) were used for this study. All animals were housed in a room under controlled conditions of temperature (72±8° F.), relative humidity of 30-70% and a 12-hour light-dark cycle (lights on at 6:00 AM and off at 6:00 PM) at a fully AAALAC accredited, USDA registered and OLAW assured laboratory animal research facility. All animals were allowed free access to rodent chow (Purina 5008+/−test articles) and water (+/−enalapril).
(§1) Blood and 24-hour urine samples were obtained from all animals at day 0 (15 weeks of age; prior to the initiation of enalapril treatment). Animals in Groups 3, 7, 8 and 9 were placed on drinking water containing enalapril and kept on Purina 5008 rodent chow (C13000). Animals in Group 1, 2, 4, 5 and 6 were kept on Purina 5008 rodent chow and drinking water. Ten days after the initiation of enalapril treatment, blood and 24-hour urine samples were collected from all animals. After day 10 blood and urine collections, animals in Groups 4, 5 and 6 received Compound I at 1, 3 and 10 mg/kg/day, respectively for 11 weeks. In addition to enalapril treatment, animals in Groups 7, 8 and 9 received Compound I at 1, 3 and 10 mg/kg/day, respectively for an additional 11 weeks.
(§2) 10 weeks after the initiation of Compound I treatment, animals (27 weeks of age) were fasted for 18 hours. Serum samples were collected for the measurement of fasting insulin levels. Serum insulin levels were determined using the Rat Insulin ELISA kit (Cat #ELR-Insulin, RayBiotech, Inc.)
For OGTT, animals were given glucose solution (50% Dextrose) at 2 g/kg via oral gavage. Blood samples were collected prior to oral glucose administration (0 minute) and 30, 60, 90, 120 and 180 minutes after administration. Blood glucose levels were measured using a standard blood glucose monitoring system (AlphaTRAK). The blood glucose reading at time 0 (prior to glucose administration) corresponds to the fasting glucose measurement.
(§3) The data are expressed as mean±SEM. […] One-tailed tests were used for comparison of variables. Statistical significance is indicated by P values less than 0.05.

[2] = system: ZSF1 obese rats; assay: Fasting serum insulin in ZSF1 rats (Rat Insulin ELISA); assay type: in vivo; details: week 10, enalapril 3 mpk
Excerpt: as §1, §2, §3

[3] = system: ZSF1 obese rats; assay: ZSF1 rat study: serum clinical chemistry (cholesterol, triglycerides), body weight, clinical observations; assay type: in vivo; details: ZSF1 obese rats; enalapril 3 mg/kg/day; Animal #8; 3 days after initiation
Excerpt: as §1
Body weight and 24-hour water intake were obtained at least once every other week. 24-hour food intake was measured at baseline and week 8.
Plasma (for biomarker) and serum (for clinical chemistry analysis) samples were collected from all treatment groups at baseline, day 10, weeks 5 and 9 prior to placing the animals into the metabolic cages. Plasma samples were obtained from Groups 3-9 for measurement of compound exposure levels at weeks 5 and 11. Terminal plasma and serum samples were obtained at necropsy.
For serum samples, blood was collected in serum separator tubes, maintained at room temperature for at least 30 minutes and then centrifuged at 6000 rpm for 10 minutes. Serum samples were stored at −80° C. until analysis. Urine and serum samples were analyzed using the Randox Daytona Clinical Chemistry Analyzer. All measurements were performed in accordance with manufacturer's instructions.
Animal #8 (in Group 3, ZSF1—enalapril 3 mg/kg/day) was found dead 3 days after the initiation of enalapril treatment.

CCOC(=O)[C@H](CCc1ccccc1)N[C@@H](C)C(=O)N1CCC[C@H]1C(=O)O [enalapril, reference compound]
Fasting Blood Glucose (0 minute) [1]: 255 ± 13 mg/dL | OGTT Area Under Curve (AUC) [1]: 84459 ± 1409 | OGTT Blood Glucose 120 minutes [1]: 452 ± 10 mg/dL | OGTT Blood Glucose 180 minutes [1]: 435 ± 9 mg/dL | Fasting Insulin [2]: 11.4 ± 1.7 μIU/mL | clinical observation [3]: found dead
